Reference: ChEMBL document CHEMBL1201862, “PubChem BioAssay data set” (2004)
The source made the active and inactive calls.

What was measured:
[1] = molecular target: T1, Oxysterols receptor LXR-beta (Homo sapiens, UniProt P55055); assay type: functional, cell-based;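 also: Cell-based luminescence dose-response assay of agonist activity at LXR, run as a confirmatory counterscreen to a daf-12 agonist screen; HEK293 cells with Gal4-LXR fusion and GAL4-driven luciferase reporter; agonist potency from rising luciferase signal of a Gal4-LXR reporter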
T1 sequence (P55055 whole entry): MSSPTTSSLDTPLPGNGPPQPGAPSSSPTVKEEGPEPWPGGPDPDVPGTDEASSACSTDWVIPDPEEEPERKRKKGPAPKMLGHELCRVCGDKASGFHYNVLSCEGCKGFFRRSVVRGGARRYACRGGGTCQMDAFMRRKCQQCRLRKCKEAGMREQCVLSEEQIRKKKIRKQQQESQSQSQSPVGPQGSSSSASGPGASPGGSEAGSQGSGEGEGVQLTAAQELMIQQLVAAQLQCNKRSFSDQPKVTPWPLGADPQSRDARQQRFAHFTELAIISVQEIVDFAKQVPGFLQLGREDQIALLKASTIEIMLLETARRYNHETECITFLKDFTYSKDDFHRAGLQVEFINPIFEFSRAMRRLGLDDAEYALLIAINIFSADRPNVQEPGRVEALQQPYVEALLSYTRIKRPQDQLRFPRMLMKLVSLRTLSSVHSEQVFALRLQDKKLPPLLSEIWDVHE

[2] = cells
[3] = molecular target: Prothrombin (Homo sapiens, UniProt P00734); test: Thrombin 1536 HTS Dose Response Confirmation. [Related pubchem assays: 1046 (Thrombin 1536 HTS; hits were confirmed in this assay)]; assay type: functional
[4] = molecular target: T2, Heat shock factor protein 1 (Mus musculus, UniProt P38532); test: decrease of HSF1-responsive luciferase luminescence – cell-based, NIH3T3, dose retest, confirmation (AID 2382); assay type: functional;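 also: NIH3T3 fibroblasts with HSF1-driven luciferase reporter stressed by proteasome inhibitor MG132; luminescence from HSF1-driven luciferase expression after 8 hours of MG132 stress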
T2 sequence (P38532 whole entry): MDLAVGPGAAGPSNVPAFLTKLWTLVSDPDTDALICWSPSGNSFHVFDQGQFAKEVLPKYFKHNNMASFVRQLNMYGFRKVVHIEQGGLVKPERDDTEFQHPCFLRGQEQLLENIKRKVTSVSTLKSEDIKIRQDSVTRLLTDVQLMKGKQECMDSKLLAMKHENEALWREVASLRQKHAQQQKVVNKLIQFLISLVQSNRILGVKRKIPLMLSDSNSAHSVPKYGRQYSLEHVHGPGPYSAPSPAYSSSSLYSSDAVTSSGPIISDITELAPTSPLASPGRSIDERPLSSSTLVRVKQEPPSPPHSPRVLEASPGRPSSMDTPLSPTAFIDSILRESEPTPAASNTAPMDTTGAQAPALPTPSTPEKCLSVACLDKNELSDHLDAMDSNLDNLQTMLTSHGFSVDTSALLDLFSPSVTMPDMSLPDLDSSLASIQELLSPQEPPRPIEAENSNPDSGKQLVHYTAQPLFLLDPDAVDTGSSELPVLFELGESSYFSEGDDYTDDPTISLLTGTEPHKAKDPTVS

[5] = tested on: Vero; test: mammalian cell viability reduction – secondary assay, cytotoxicity control for West Nile virus antiviral project, dose response (AID 1650); assay type: functional; settings: Chlorocebus sabaeus
[6] = molecular target: T3, Estrogen receptor beta (Homo sapiens, UniProt Q92731);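 also: recombinant ER-beta bound to coactivator SRC1 peptide in presence of estradiol agonist; inhibitors block coactivator peptide binding and lower the FRET signal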
[7] = molecular target: T3, Estrogen receptor beta; test: blockers of SRC-3 recruitment to ERβ – biochemical, ELISA, streptavidin-HRP readout, orthogonal assay, confirmation (AID 1060)
[8] = molecular target: Eukaryotic translation initiation factor 4E (Mus musculus, UniProt P63073); test: blockers of eIF4G binding by eIF4E – biochemical, TR-FRET, dose response (AID 855); assay type: functional;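 also: potency for disrupting eIF4E binding to eIF4GI seen as loss of FRET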
[9] = molecular target: Genome polyprotein (dengue virus type 2, UniProt P29990); test: flavivirus cap methylation enzyme inhibition – biochemical, confirmation dose response, primary screen (AID 588689); assay type: functional
[10] = molecular target: T4, Fatty acid synthase (Homo sapiens, UniProt P49327); test: inhibition of human FAS-TE enzyme activity – biochemical, endpoint fluorescence intensity, uHTS hits, dose response (AID 624327); assay type: functional;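 also: fluorescence from hydrolysis of an O-methyl fluorescein acyl ester substrate by the enzyme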
[11] = molecular target: T4, Fatty acid synthase; test: inhibition of human FAS-TE enzyme activity – biochemical, kinetic fluorescence intensity, dose response (AID 624326); assay type: functional;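 also: rate of fluorescence rise from hydrolysis of a fluorogenic O-methyl fluorescein ester substrate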
[12] = molecular target: Kallikrein-7 (Homo sapiens, UniProt P49862); test: Fluorescence Intensity-based biochemical primary high throughput dose response assay to identify activators of kallikrein-7 (K7) zymogen.
[13] = molecular target: Disintegrin and metalloproteinase domain-containing protein 17 (Homo sapiens, UniProt P78536); test: exosite inhibitors of ADAM17, dose response, biochemical (AID 743260)
[14] = inhibition of ADAM10 peptide cleavage – biochemical, FRET peptide substrate, recombinant human ADAM10, selectivity assay for ADAM17 exosite inhibitor project, dose response (AID 743259);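 also: ADAM10 enzyme cleaving a FRET peptide substrate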
[15] = molecular target: Paired box protein Pax-8 (Homo sapiens, UniProt Q06710); test: PAX8 transcriptional activity inhibition in RMG-I – RMG-I cells, luciferase, cherry-pick, dose response (AID 687027); assay type: functional, cell-based;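 also: luciferase reporter driven by Pax8 target thyroperoxidase promoter measured by SteadyGlo luminescence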
[16] = OVCAR-3 cell viability loss – plate reader, dry powder samples, PAX8 inhibitor project, dose response (AID 743044); assay type: functional, cell-based
[17] = Dd2 parasite growth inhibition in erythrocytes – SYBR Green, dry powder samples, set 9, dose response (AID 1159568); assay type: functional, cell-based
[18] = growth inhibition of yeast DHODH-expressing 3D7 parasites – SYBR Green, dry powder samples, dose response (AID 1159570); assay type: functional, cell-based;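 also: parasite growth measured after 72 hours of compound exposure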
[19] = P. falciparum Dd2 growth inhibitors, dose response, SYBR Green, cherry-picked samples (AID 1159567); assay type: functional, cell-based
[20] = Dd2 malaria parasite growth inhibition potency – SYBR Green, dry powder samples, dose response (AID 1159566); assay type: functional, cell-based;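 also: potency for growth inhibition with lower SYBR green DNA signal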
[21] = growth inhibition of PfATP4-mutant resistant parasites – NITD609-resistant line, SYBR Green, dry powder, dose response (AID 1159571); assay type: functional, cell-based;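 also: parasites synchronized at ring stage by sorbitol before testing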
[22] = molecular target: T5, Replicative DNA helicase DnaB (Mycobacterium tuberculosis, UniProt P9WMR3); test: DnaB intein splicing inhibitors, dose response, biochemical, cell-free fluorescence (AID 449749); assay type: functional
T5 sequence (P9WMR3 whole entry): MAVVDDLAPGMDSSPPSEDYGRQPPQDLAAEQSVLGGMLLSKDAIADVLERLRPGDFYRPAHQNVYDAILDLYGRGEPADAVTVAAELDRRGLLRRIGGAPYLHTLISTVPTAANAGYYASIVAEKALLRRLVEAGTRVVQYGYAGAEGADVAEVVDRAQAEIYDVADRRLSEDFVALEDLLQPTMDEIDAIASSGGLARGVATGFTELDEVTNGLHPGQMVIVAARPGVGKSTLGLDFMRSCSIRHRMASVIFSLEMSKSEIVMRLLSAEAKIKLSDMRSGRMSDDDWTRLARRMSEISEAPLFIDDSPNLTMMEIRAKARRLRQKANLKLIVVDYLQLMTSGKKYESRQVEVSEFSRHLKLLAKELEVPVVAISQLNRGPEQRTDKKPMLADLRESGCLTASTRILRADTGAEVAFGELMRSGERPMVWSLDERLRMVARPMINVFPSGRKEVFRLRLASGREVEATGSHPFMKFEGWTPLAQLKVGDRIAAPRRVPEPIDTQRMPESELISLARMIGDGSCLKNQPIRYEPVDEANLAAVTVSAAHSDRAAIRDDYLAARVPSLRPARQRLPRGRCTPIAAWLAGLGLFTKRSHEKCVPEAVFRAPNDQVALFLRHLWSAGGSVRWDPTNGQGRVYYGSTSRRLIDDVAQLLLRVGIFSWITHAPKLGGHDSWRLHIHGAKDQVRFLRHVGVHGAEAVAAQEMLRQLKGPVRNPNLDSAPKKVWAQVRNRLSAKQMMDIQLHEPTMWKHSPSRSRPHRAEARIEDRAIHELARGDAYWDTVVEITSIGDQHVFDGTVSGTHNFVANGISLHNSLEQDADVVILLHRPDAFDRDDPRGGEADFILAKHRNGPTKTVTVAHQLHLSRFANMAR

[23] = molecular target: T6, Protein RecA (Mycobacterium tuberculosis, UniProt P9WHJ3); test: Fluorescence Cell-Free Homogeneous Dose Retest to Identify Inhibitors of RecA-Intein Splicing Activity. [Related pubchem assays (depositor defined):AID2097, AID2223, AID489010, AID492950]; assay type: functional
T6 sequence (P9WHJ3 whole entry): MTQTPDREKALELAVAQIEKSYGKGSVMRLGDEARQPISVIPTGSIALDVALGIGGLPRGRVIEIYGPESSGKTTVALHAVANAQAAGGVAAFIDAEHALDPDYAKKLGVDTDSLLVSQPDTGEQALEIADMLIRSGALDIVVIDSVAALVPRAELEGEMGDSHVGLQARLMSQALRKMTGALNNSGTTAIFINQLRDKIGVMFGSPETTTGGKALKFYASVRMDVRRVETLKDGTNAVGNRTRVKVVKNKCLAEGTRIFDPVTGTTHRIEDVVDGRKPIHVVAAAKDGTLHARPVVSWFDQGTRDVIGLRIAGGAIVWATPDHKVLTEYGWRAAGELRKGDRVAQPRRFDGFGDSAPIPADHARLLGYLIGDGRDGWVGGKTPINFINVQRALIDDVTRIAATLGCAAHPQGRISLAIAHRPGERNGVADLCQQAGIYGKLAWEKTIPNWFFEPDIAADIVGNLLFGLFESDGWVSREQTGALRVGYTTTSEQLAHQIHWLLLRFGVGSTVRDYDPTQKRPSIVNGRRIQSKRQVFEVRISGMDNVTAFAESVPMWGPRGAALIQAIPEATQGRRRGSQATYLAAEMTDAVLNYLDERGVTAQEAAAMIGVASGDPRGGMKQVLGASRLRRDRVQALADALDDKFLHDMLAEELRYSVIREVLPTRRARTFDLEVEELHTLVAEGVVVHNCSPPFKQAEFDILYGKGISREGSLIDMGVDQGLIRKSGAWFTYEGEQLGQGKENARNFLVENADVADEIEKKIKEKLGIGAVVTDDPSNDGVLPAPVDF

T3 sequence (Q92731 whole entry): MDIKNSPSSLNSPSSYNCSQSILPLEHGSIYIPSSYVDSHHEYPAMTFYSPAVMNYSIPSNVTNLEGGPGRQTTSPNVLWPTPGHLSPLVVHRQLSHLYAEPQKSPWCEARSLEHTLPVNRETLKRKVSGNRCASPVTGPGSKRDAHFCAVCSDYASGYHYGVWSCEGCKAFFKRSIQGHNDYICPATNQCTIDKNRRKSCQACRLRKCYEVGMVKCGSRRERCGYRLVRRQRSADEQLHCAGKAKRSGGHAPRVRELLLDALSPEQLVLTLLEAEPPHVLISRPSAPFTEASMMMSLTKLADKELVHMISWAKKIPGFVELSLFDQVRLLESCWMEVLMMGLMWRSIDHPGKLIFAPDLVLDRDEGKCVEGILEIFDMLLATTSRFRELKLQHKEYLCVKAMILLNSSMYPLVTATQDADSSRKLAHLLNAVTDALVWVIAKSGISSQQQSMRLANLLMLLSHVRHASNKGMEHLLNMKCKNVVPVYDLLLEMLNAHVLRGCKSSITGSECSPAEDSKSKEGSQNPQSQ
Sequence of Disintegrin and metalloproteinase domain-containing protein 17 (P78536 whole entry, the tested form may be a part): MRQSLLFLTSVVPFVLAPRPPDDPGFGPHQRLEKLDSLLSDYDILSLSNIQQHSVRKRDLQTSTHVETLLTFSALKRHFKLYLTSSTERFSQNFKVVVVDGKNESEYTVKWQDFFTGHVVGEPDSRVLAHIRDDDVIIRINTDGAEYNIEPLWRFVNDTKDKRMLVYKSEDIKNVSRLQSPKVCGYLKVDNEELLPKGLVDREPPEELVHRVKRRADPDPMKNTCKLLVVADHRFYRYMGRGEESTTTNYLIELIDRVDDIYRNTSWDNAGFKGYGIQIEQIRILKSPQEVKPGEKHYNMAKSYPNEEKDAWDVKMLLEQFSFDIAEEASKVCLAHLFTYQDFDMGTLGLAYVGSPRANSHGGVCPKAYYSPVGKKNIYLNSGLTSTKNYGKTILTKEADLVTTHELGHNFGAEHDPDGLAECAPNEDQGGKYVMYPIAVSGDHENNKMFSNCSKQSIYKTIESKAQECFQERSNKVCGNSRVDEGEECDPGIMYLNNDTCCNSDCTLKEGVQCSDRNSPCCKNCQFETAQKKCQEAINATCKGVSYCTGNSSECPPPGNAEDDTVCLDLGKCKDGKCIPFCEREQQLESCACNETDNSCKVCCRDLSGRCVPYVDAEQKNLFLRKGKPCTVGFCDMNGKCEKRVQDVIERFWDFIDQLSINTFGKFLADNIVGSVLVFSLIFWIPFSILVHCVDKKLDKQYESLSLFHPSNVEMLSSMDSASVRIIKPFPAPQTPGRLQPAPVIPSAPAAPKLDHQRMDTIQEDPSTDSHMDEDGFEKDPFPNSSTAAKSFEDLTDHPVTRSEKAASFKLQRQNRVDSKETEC
T4 sequence (P49327 whole entry): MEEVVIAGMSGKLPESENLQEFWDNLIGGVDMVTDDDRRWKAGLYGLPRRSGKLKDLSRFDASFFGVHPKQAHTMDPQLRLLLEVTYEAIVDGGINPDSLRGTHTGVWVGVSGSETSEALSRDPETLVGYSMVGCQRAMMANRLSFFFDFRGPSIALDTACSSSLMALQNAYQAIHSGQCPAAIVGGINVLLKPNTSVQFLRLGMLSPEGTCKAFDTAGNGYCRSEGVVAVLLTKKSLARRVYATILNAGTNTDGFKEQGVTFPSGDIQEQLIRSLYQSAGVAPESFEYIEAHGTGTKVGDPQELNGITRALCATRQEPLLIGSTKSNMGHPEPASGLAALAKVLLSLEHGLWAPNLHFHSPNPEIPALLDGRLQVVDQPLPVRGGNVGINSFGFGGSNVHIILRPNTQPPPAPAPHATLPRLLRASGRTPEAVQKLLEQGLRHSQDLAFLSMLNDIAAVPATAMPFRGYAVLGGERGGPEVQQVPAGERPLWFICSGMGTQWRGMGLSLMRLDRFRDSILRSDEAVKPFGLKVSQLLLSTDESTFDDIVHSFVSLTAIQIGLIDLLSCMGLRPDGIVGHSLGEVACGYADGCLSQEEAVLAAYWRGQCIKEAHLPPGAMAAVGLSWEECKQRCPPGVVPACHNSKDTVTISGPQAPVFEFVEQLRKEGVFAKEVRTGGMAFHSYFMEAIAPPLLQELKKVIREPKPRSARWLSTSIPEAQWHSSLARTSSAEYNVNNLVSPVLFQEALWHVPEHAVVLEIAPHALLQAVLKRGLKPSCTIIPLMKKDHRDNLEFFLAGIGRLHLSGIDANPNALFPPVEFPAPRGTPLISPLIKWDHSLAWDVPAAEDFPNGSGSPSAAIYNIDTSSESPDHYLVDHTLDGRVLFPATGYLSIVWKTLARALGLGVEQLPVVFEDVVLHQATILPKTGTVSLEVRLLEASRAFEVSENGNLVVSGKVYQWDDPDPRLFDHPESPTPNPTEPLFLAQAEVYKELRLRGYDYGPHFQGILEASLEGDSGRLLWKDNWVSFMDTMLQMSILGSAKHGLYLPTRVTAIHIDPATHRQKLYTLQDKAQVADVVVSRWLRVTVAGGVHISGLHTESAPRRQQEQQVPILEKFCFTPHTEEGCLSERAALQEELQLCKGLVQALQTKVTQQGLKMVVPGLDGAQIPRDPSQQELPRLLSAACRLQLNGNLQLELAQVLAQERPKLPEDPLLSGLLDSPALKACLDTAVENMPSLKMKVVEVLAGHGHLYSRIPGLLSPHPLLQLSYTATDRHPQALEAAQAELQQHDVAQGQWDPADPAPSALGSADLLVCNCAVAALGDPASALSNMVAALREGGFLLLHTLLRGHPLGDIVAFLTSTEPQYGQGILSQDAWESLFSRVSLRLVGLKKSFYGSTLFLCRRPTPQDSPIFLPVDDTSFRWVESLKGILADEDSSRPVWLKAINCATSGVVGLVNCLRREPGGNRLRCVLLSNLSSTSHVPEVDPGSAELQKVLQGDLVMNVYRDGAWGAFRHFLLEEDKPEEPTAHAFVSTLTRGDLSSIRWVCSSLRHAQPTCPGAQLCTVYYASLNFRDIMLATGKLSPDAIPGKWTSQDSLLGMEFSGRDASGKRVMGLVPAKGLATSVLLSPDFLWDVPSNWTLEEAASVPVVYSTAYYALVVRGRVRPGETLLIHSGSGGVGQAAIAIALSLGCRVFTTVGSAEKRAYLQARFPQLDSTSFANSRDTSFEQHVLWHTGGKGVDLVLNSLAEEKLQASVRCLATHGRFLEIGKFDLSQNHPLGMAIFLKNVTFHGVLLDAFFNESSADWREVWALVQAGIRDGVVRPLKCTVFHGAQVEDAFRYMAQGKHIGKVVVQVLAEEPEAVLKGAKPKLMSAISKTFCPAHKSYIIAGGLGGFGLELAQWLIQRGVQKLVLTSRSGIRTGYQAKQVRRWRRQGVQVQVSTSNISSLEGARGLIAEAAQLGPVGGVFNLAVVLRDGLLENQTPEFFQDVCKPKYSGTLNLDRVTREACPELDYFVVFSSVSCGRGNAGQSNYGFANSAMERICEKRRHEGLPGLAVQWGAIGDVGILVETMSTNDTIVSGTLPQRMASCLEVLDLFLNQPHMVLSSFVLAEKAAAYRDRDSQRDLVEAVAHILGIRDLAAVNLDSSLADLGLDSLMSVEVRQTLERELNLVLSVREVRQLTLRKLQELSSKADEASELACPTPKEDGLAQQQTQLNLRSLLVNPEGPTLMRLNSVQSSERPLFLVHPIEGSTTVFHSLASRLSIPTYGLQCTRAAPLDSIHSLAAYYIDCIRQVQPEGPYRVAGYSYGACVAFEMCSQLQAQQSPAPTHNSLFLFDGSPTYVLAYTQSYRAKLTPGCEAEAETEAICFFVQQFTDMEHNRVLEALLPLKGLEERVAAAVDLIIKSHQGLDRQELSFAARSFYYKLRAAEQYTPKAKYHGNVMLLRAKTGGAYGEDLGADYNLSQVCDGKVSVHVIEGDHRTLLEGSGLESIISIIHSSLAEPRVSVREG
Sequence of Kallikrein-7 (P49862 whole entry, the tested form may be a part): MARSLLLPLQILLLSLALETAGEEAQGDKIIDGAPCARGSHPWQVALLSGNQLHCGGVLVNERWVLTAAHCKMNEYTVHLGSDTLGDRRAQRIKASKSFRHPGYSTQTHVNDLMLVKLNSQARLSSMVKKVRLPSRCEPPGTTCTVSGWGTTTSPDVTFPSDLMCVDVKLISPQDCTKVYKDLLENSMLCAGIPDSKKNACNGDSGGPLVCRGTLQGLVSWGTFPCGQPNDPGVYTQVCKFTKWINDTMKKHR
Sequence of Eukaryotic translation initiation factor 4E (P63073 whole entry): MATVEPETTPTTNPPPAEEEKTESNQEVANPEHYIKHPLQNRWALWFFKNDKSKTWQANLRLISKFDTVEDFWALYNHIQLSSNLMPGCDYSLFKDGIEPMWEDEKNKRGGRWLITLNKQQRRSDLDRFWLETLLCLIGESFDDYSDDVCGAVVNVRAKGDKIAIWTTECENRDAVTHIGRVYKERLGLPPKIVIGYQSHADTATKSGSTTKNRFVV
Sequence of Paired box protein Pax-8 (Q06710 whole entry): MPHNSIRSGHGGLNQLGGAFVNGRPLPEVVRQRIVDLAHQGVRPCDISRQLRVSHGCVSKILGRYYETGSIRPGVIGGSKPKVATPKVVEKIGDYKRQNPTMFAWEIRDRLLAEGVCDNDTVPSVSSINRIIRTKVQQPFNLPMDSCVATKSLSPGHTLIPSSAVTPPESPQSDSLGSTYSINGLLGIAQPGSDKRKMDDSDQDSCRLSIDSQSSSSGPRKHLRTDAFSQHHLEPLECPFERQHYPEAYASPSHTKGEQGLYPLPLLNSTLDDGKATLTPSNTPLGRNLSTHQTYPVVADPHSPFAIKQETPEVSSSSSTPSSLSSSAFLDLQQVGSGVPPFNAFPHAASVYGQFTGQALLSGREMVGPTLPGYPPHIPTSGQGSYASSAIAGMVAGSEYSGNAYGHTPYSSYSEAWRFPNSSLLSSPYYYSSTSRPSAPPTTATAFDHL

For CCOC(=O)c1c(C)nc(-c2ccccc2)nc1N, the EC50 [1] was > 67.5 µM (inactive) and the EC50 [2] was > 67.5 µM (inactive).
In the case of C=CCOc1ccc(C(=O)C2=C(O)C(=O)N(CCCOC)C2c2ccncc2)cc1 (stereo not drawn), the IC50 [3] is reported as > 50 µM (inconclusive).
For CCCCCCc1cc2cc(S(=O)(=O)c3ccc(F)c(Cl)c3)c(=O)oc2cc1O, the EC50 [4] was 17.5 µM (active) and the CC50 [5] was 10.9 µM (active).
In the case of Cc1ccc2c(Cl)cc(Cl)c(OCC(=O)NCc3ccco3)c2n1, the IC50 [6] is reported as < 1.56 µM (active), the IC50 [7] is reported as > 50 µM (not active) and the IC50 [8] is reported as 12.5 µM (active).
For Cc1ccc(C)c(NC(=O)c2ccc3ccccc3n2)c1, the EC50 [1] was > 67.5 µM (inactive) and the EC50 [2] was > 67.5 µM (inactive).
For C1=C(N2CCOCC2)/C(=C/c2nc3ccccc3[nH]2)CC1, the IC50 [6] was 23.8 µM (active) and the IC50 [7] was > 109 µM (not active).
In the case of CCc1ccc(S(=O)(=O)ON2C(=O)c3ccccc3C2=O)cc1, the IC50 [3] is reported as 1.55 µM (active), the IC50 [9] is reported as > 100 µM (active) and the IC50 [10] is reported as 2.41 µM (active). The IC50 [11] was 1.28 µM (active).
With CCn1ncc(Br)c1C(=O)Nc1cc([N+](=O)[O-])ccc1C the IC50 [3] was > 50 µM (not active).
In the case of O=C(O)CCC(=O)NN1C(=O)c2ccccc2NC1c1ccc(F)cc1 (stereo not drawn), the EC50 [12] is reported as > 0.286 µM (active).
In the case of O=C1NC(Nc2nc3ccccc3s2)(C(F)(F)F)C(=O)N1C1CCCCC1 (stereo not drawn), the CC50 [5] is reported as 3.44 µM (active).
For O=C(/C=C/Nc1ccc(F)cc1)c1cccs1, the EC50 [1] was > 67.6 µM (inactive) and the EC50 [2] was > 67.6 µM (inactive).
In the case of CCCCC[C@@H](C)N1C[C@@H](COCc2ccccc2)Oc2cc(N3CCC[C@H]3CO)ccc2S1(=O)=O, the IC50 [13] is reported as > 69.5 µM (inactive) and the IC50 [14] is reported as 9.07 µM (active).
In the case of O=C(Nc1ccc(F)cc1)N[C@H]1CC[C@H](CCNC(=O)c2cc(Cl)cc(Cl)c2)O[C@H]1CO, the AC50 [15] is reported as 8.97 µM (active) and the AC50 [16] is reported as 33 µM (active).
With NS(=O)(=O)c1ccc(N/N=C/C=C/c2ccccc2[N+](=O)[O-])cc1 the IC50 [13] was > 69.5 µM (inactive) and the IC50 [14] was 13.7 µM (inactive).
With O=C(C[C@@H]1CC[C@@H]2[C@H](COC[C@@H](O)CN2C(=O)c2ccncc2)O1)Nc1ccc(-c2ccccc2)cc1 the AC50 [17] was 15.3 µM (active).
For C/C=C/c1ccc([C@H]2[C@@H](CO)N(C(=O)Nc3ccccc3F)[C@H]2C#N)cc1, the AC50 [17] was 13.7 µM (active).
With COc1cccc(S(=O)(=O)N(C)C[C@@H]2Oc3ncc(C#Cc4ccc(OC)c(OC)c4)cc3C(=O)N([C@H](C)CO)C[C@@H]2C)c1 the AC50 [18] was 0.724 µM (active), the AC50 [19] was 1.23 µM (active) and the AC50 [20] was 0.276 µM (active). The AC50 [21] was 0.428 µM (active).
For CCCNC(=O)N1[C@H](C#N)[C@@H](c2ccccc2C2=CCCCC2)[C@@H]1CO, the AC50 [17] was 4.33 µM (active).
In the case of O=C(O)c1ccccc1SCC(=O)N1CCOCC1, the IC50 [3] is reported as > 50 µM (not active).
With CC(=O)O[C@@H]1C[C@H]2C(C)(C)C(=O)C=C[C@]2(C)[C@H]2CC[C@@]3(C)[C@H](c4ccoc4)OC(=O)[C@H]4O[C@]43[C@@]21C [GEDUNIN] the CC50 [5] was 22.2 µM (active), the AC50 [22] was 4.57 µM (active) and the EC50 [23] was 16.1 µM (active).
